Assay results as given in ChEMBL document CHEMBL1201862, “PubChem BioAssay data set” (2004).
The source made the active and inactive calls. Rule as the data show it, for most assays here: actives have a measured EC50 and inactives only a lower limit.

How the values were obtained:
[1] = molecular target: Cytochrome P450 3A4 (Homo sapiens, UniProt P08684);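 also: CYP3A4 tested as one member of a cytochrome P450 panel screen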
[2] = cytotoxicity toward NIH3T3 fibroblasts, dose response, counter-screen, cell-based, ATP luminescence, mouse fibroblasts (AID 2010); assay type: functional;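 also: cells exposed to compound for about 90 hours before reading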
[3] = inhibitors of intracellular T. cruzi replication, confirmation, NIH3T3 host cells, beta-gal luminescence (AID 2044); assay type: functional, cell-based;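 also: intracellular parasites grown in NIH/3T3 mouse fibroblasts as host cells; luminescent beta-galactosidase reporter signal from transgenic T. cruzi replicating inside host cells; inhibitors lower the luminescence signal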
[4] = molecular target: Cytochrome P450 2C9 (Homo sapiens, UniProt P11712)
[5] = test system: Streptococcus; experiment: Group A Streptococcus viability loss, dose response, counter-screen for streptokinase expression inhibitor project, luminescence, BacTiterGlo (AID 1915); assay type: functional, organism-based; details: read-out: EC50;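 also: potency for reduction of bacterial viability or growth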
[6] = test system: Streptococcus sp. 'group A'; experiment: growth inhibition of control SK(-) GAS strain, dose response, counter-screen for streptokinase expression inhibitor project, luminescence, kanamycin, BacTiterGlo, confirmation (AID 1900); assay type: functional, organism-based

Chain of Cytochrome P450 2C9 (P11712 whole entry): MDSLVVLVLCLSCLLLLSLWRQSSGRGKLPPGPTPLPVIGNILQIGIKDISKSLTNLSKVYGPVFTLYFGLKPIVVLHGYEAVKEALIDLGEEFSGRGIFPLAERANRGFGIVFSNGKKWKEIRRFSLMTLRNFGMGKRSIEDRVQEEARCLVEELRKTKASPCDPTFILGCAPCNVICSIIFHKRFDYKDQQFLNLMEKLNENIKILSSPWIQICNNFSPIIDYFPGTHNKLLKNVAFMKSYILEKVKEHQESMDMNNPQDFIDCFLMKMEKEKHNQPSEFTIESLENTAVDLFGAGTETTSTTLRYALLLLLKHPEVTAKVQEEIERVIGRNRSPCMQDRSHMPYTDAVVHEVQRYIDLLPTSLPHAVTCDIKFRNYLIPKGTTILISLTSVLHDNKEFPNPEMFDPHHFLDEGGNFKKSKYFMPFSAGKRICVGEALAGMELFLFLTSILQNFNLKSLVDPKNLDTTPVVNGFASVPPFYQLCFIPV
Chain of Cytochrome P450 3A4 (P08684 whole entry): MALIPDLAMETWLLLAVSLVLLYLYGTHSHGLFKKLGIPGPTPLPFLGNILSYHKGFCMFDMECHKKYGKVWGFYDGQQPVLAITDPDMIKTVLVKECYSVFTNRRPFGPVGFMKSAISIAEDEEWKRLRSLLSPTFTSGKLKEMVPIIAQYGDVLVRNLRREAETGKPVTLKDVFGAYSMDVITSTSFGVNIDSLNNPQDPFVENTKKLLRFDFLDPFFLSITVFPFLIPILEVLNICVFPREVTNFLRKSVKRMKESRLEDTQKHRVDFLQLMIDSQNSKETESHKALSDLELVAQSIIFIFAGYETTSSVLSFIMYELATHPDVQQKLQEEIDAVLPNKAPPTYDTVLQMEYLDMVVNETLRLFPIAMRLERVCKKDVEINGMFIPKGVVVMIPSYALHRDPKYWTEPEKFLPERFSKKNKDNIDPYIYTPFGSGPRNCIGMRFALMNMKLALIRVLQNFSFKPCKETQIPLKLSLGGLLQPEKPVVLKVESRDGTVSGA

Compound | AC50 [1] | EC50 [2] | EC50 [3] | AC50 [4] | other results
CC(=O)Nc1ccc(Nc2ncnc3c2cnn3-c2ccccc2)cc1 | 35.5 µM (inconclusive) | – | – | – | –
O=C1CN(c2nc(-c3ccccc3)c3cc(Br)ccc3n2)c2ccccc2N1 | 7.08 µM (inconclusive) | – | – | – | –
CC(=O)Nc1ccc(S(=O)(=O)c2ccc([N+](=O)[O-])cc2)cc1 | – | > 60 µM (not active) | 0.661 µM (active) | – | –
O=C(NCC(c1ccco1)N1CCCC1)c1ccccc1Sc1ccc(C(F)(F)F)cc1[N+](=O)[O-] (stereo unspecified) | – | > 60 µM (not active) | 1.64 µM (active) | – | –
O=[N+]([O-])c1ccc(CNCCc2ccccc2)cc1 | – | > 60 µM (not active) | 0.528 µM (active) | – | –
CCCCN1CSC(=S)N(Cc2ccccc2)C1 | 3.16 µM (inconclusive) | – | – | 7.94 µM (inconclusive) | –
O=c1c2c(-c3ccc(Cl)cc3)csc2nc2n1CCC2 | 12.6 µM (inconclusive) | – | – | – | –
CCCC/C=C/C(NC(=O)c1ccc(C(F)(F)F)cc1)c1ccccc1 (stereo unspecified) | 10 µM (inconclusive) | – | – | – | –
O=C(O)/C(=C\c1ccncc1)c1cccc2ccccc12 | – | – | – | 3.16 µM (inconclusive) | –
O=C(Nc1ccccc1C(=O)NCC1CCCO1)c1ccc(Cl)cc1Cl (stereo unspecified) | 4.47 µM (inconclusive) | – | – | – | –
Cc1ccc(S(=O)(=O)CCCS(=O)(=O)c2ccc(C)cc2)cc1 | – | – | – | 5.01 µM (inconclusive) | –
O=C(Nc1cccc2ccccc12)c1ccc([N+](=O)[O-])s1 | – | > 60 µM (not active) | 0.407 µM (active) | – | –
NC(S)=Nc1cc2ccccc2c2ccccc12 | – | – | – | 0.282 µM (inconclusive) | –
COc1ccc(-n2nc3cc(C)c(NC(=S)NC(=O)c4ccccc4C)cc3n2)cc1 | – | – | – | 6.31 µM (inconclusive) | –
COc1ccc(NC(=O)N2CC3(CCN(S(=O)(=O)c4ccccc4)CC3)C2)cc1 | 15.8 µM (inconclusive) | – | – | – | –
c1cncc(CNc2nc(-c3ccc4c(c3)OCO4)nc3ccccc23)c1 | – | – | – | 0.398 µM (inconclusive) | –

Compound | AC50 [1] | EC50 [2] | EC50 [3] | AC50 [4] | other results
CC(=O)[C@@H]1CC[C@@H]2[C@@H]3C[C@H](C)C4=CC(=O)CC[C@@]4(C)[C@H]3[C@H](O)C[C@]21C | 7.94 µM (inconclusive) | – | – | – | –
Fc1ccccc1Cc1noc(CN2CCN(Cc3ccc4c(c3)OCO4)CC2)n1 | – | > 60 µM (not active) | 1.03 µM (active) | – | –
Cc1ccc(NC(=O)CCC(=O)c2ccc(F)cc2)cc1Cl | – | – | – | 0.891 µM (inconclusive) | –
Fc1ccc(N2CCN(c3ncnc4c3nnn4Cc3ccccc3Cl)CC2)cc1 | – | > 60 µM (inconclusive) | 2.46 µM (active) | – | –
O=C(Nc1ccccc1)N1CCCC2(CCN(C(=O)c3cnccn3)CC2)C1 | 25.1 µM (inconclusive) | – | – | – | –
Cc1ccc(CNC(=O)CCC2CCCN(Cc3cccc4ncccc34)C2)o1 (stereo unspecified) | – | > 60 µM (inconclusive) | 0.193 µM (active) | – | –
COc1ccc(Cc2nnc(NC(=O)c3cccc([N+](=O)[O-])c3C)s2)cc1 | – | – | – | 0.794 µM (inconclusive) | –
CCCCNC(=O)C1C2C=CC3(CN(Cc4ccccc4Cl)C(=O)C13)O2 (stereo unspecified) | – | – | – | 17.8 µM (inconclusive) | –
Cc1cc(N(CN2CCCC2=O)C(=O)c2ccc(F)cc2)no1 | 3.98 µM (inconclusive) | – | – | – | –
C/C(=N\NC(=O)c1cc2ccccc2cc1O)c1cc2ccccc2o1 | – | – | – | – | EC50 [5]: 4.11 µM (active); EC50 [6]: 1.77 µM (active)
Cc1ccc(-c2nc(C(=O)NCCCN3CCOCC3)cc3c2[nH]c2ccccc23)cc1 | – | > 30 µM (not active) | 1.36 µM (active) | – | –
Cc1cccc(C(=O)N/N=C/c2ccc(OCC(=O)N3CCCCC3)cc2)c1 | – | – | – | 39.8 µM (inconclusive) | –
C/N=c1\scc(-c2ccc(OC)cc2)n1/N=C(\C)c1cccnc1 | – | > 30 µM (not active) | 1.79 µM (active) | – | –
C/C(Cn1cnc([N+](=O)[O-])n1)=N/NC(=O)COc1c(Cl)cc(Cl)cc1Cl | – | > 60 µM (not active) | 0.143 µM (active) | – | –
C/C(=C\C(=O)c1ccccc1)Nc1ccc(N2CCOCC2)cc1 | – | > 60 µM (not active) | 6.78 µM (active) | – | –
Brc1ccc(OCCn2ccnc2)cc1 | – | > 60 µM (not active) | 3.15 µM (active) | – | –
